This is an account of results in US20200383327A1, “METHOD OF IMPROVING PLANT PERFORMANCE” (The State of Israel, Ministry of Agriculture & Rural …, priority 2018, published 2020).

What all share (assay type): in vivo
One assay deals with Botrytis. As to the kind of experiment: Resistance of petunia plants to Botrytis, increasing Phe concentrations. As to the method:
The effect of treating petunia plants with increased concentrations of Phe was assessed: plants were either sprayed or drenched with increasing concentration of Phe three days prior to infection with Botrytis and on the day of infection. The infected area was followed for 7-10 days after infection.

Assay [1] in a line: Plant growth performance parameters after pre-harvest treatment. The procedure:
FIGS. 20A-20I are images and graphs showing the effects of Phe solution on plant growth performance parameters. (20A) is images of plants treated with 2 mM once or twice, once with 4 mM or non-treated (control). (20B-20C) are bar graphs showing plant height (20B) and the % increase in the plant height (20C) in treated and control plants. (20D-20E) are bar graphs showing the number of nodes per plant (20D) and the % increase in the number of nodes (20E) in treated and control plants. (20F-20G) are bar graphs showing the % increase in leaf length (20F) and the % increase in the leaf area (20G) in treated and control plants. (20H-20I) are bar graphs showing plant fresh (e.g., “wet”) weight […] and plant dry weight (20I) in treated and control plants.
Plant were treated with Phe solution pre-harvest, and growth performance parameters, including total height, total weight (“wet” and dry), number of nodes, leaf length, and leaf area were examined.

The test system of a further assay is Powdery Mildew. In words: Powdery mildew incidence per inflorescence in mango orchard sprayed during flowering. Particulars: application during orchard flowering; FIG. 23A. The source says: (§1) FIGS. 23A-C: Effect of flowering application on disease incidence. Avocado and Mango cv. ‘Kent’ orchards were sprayed with fungicide (Pyrimethanil+Fludioxonil) or with phenylalanine during flowering. (FIG. 23A). Powdery Mildew incidence (percentage) per inflorescence in mango orchard. (FIG. 23B). Anthracnose incidence (percentage) on harvested mango stored at ambient temperature for 12 days. (FIG. 23CB). Anthracnose incidence (percentage) on harvested avocado stored at ambient temperature for 14 days.
(§2) Flowering is one of the more susceptible organs of the tree. Pathogenic fungi can penetrate during flowering and either infect the flower (e.g., powdery mildew) or endophytically colonize the stem and the fruit without causing any visible symptoms. Those fungi (e.g. Colletotrichum and Lasiodiplodia) become active during abiotic stress or during fruit ripening and cause fruit stem-end rot and anthracnose.

Another assay deals with Penicillium digitatum. In words: Postharvest decay of 'Michal' clementine fruit sprayed with conidia. The settings on record: 4 mM phenylalanine, FIG. 6. As to the method:
FIGS. 6A-6C are graphs and a photograph showing induced resistance of harvested clementine fruit to fungal pathogens. FIG. 6A is a vertical bar showing the % of decayed Clementine fruit (in a box) of the cultivar ‘Michal’ which were dipped for 30 seconds in 4 mM phenylalanine. After the fruits were dried, they were sprayed with conidia suspension of Penicillium digitatum (early infection), or alternatively the fruit was sprayed with conidia suspension two days after being dipped in phenylalanine (late infection). FIG. 6B is representative pictures of inoculated fruits of control and treatment with 4 mM phenylalanine, 5 days post inoculation. FIG. 6C is diagrams of taste evaluation of control fruit (upper panel) and phenylalanine treated fruit (lower panel) which include off-flavors (index 1-5), acidity (index 1-5), sweetness (index 1-5), and general taste (index 1-5).

A short description of assay [2]: Mango fruit decay in cold storage after post-harvest treatment. The procedure:
FIGS. 19A-19G are images and graphs showing the effect of Phe solution on fruit post-harvest rotting under cold temperature resistance. (19A-19B) are images showing post-harvest control and treated mango fruits, respectively, stored in 7° C. […] (19C-19D) are vertical bar graphs showing indices of spots (19C) and pitting (19D) of mango fruits infected by Colletotrichum or Lasiodiplodia under 7° C. (19E-19G) are vertical bar graph showing […] decay was shown at 7° C., and side decay and total decay were shown at 7° C. and 10° C.
Mango fruits were treated with Phe solution post-harvest. Fruits were stored in either 7° C. or 10° C., and decay was inspected and documented. Post-harvest treatment as described hereinabove reduced stem decay, side decay, and total decay (FIGS. 19E-19G). […] Fruits were both treated with AAA and infested with […] post-harvest. […] (FIGS. 19C-19D).

Assay [3] in a line: Plant crop production (fruits). The procedure: FIGS. 21A-21D are bar graphs showing the effects of 1-4 mM solution on plant crop production (e.g., fruits). Plants were treated with 2 mM once or twice, once with 4 mM or non-treated (control). (21A) is a graph showing the cumulative weight of fruits per plant. (21B) is a graph showing the number of fruits per plant. (21C) is a graph showing the average weight of a fruit. (21D) is a graph showing the number of young fruits, e.g., “set fruit”.

Assay [4] concerns Tomato yellow leaf curl virus (TYLCV). As to the kind of experiment: Tomato yellow leaf curl virus severity on tomato plants. Particulars: 4 mM Phe solution, spray and drench to root zone; AUDPC during 51 days; FIG. 13. As to the method:
FIG. 13 is a bar graph showing the effect of 4 mM solution on the severity of Tomato yellow leaf curl virus (TYLCV) on leaves of tomato plants. The Phe solution was applied by spraying and by drench on the tomato plants at 3 days before and 4 hours before incubation in the greenhouse close to TYLCV infected tomato plants. Infection was natural by the vector insect silverleaf white fly. Disease severity was evaluated on a scale of 0-100% severity of symptoms coverage during 51 days after treatment and it is expressed as the area under disease progress curve (AUDPC).
The effect of Phe on TYLCV Begomovirus on tomato plants was assessed. Tomato yellow leaf curl virus (TYLCV) is a DNA virus from the genus Begomovirus. The virus is transmitted by an insect vector the whitefly Bemisia tabaci, (silverleaf whitefly; sweet potato whitefly from the family Aleyrodidae). Plants infected are tomato and also eggplant, potato, tobacco, bean, and pepper. Virus infection causes stunting, reduction of leaf size, upward cupping/curling of leaves, chlorosis on leaves and flowers, and reduction of fruit production.

The subject of a further assay is Anthracnose. In words: Anthracnose incidence on harvested mango after orchard flowering spray. The settings on record: application during orchard flowering; stored at ambient temperature for 12 days; FIG. 23B.
Excerpt: as §1, §2

Each structure is given as a SMILES string.

In the case of `N[C@@H](Cc1ccccc1)C(=O)O` [Phe, Phenylalanine], the “Protection against Botrytis” value in the assay with Botrytis (6 mM Phe, sprayed or drenched, petunia, 7-10 days after infection) is recorded as “might not be effective enough”. Also, the “Plant health and pathogen status” value with Botrytis (15 and 35 mM Phe, drenched, petunia) is “healthy, pathogen free”. Further, the “Resistance to Botrytis” value with Botrytis (35 and 50 mM Phe, sprayed, petunia, FIG. 7) was “much higher resistance to Botrytis”. In the assay with Botrytis (drenching Phe, FIGS. 8A-8B), the “Phe concentration at which resistance to Botrytis was apparent” value is ≥ 6 mM. Also, the “Phe concentration at which resistance to Botrytis was apparent” value with Botrytis (sprayed Phe, FIGS. 7A-7B) is ≥ 6 mM. In assay [1] (2 mM or 4 mM of Phe vs control, FIGS. 20A-20C), the Plant height entry is reported as “significantly higher than control”. In addition, the “Final weight at harvest, total "wet" weight” value in assay [1] (Phe treated vs control, FIG. 20H) was “significantly greater than control”. In assay [1] (Phe treated vs control, FIG. 20I), the “Final weight at harvest, total dry biomass” value is recorded as “significantly greater than control”. Further, the “Number of nodes on the plant's stem” value in assay [1] (Phe treated vs control, FIGS. 20D-20E) is “increase in height was also correlated with the number of nodes”. The Leaf length result in assay [1] (control compared to plants treated with 4 mM Phe) is “control plants had significantly shorter leaves”. The Leaf area result in assay [1] (control compared to plants treated with Phe, 2 mM or 4 mM once a week) is reported as “reduced leaf area compared to those of plants treated with Phe”. The Mango powdery mildew result in the assay with Powdery Mildew is reported as “reduced”. In the assay with Penicillium digitatum, the “Decay severity in comparison to the untreated control fruits” value was “reduced the decay severity”. Further, the Stem decay entry in assay [2] (post-harvest Phe solution, mango stored at 7° C. or 10° C., FIG. 19E) is “reduced”. In addition, the Side decay entry in assay [2] (post-harvest Phe solution, mango stored at 7° C. or 10° C., FIG. 19F) is given as “reduced”. Moreover, the Total decay result in assay [2] (post-harvest Phe solution, mango stored at 7° C. or 10° C., FIG. 19G) is listed as “reduced”. The “Black spots on fruits, control versus treated” value in assay [2] (post-harvest mango fruits stored in 7° C., FIGS. 19A-19B) is “Control fruits were shown to have substantially more black spots”. The “Number of young fruits (set fruit)” value in assay [3] (4 mM-treated plants vs control, FIG. 21D) is listed as “greater number of young fruits”. For the same compound, the “Total crop yielded (fruits)” value in assay [3] (Phe solution vs control) is “significantly increased the total crop yielded”. For the same compound, in assay [3] (Phe treated vs control), the Cumulative fruit weight result was “significantly greater cumulative fruit weight” and the Number of fruits entry is recorded as “comparable amount”. Besides, the “Average weight per fruit” value in assay [3] (Phe treated vs control, FIG. 21C) is recorded as “significantly greater average weight per fruit”. Further, in assay [4], the “Severity of Tomato yellow leaf curl virus on tomato plants canopy” value is listed as “significantly suppressed”. The “Postharvest anthracnose in mango” value in the assay with Anthracnose is on record as “reduced”.
